Reference: ChEMBL document CHEMBL6103575, “Design, synthesis and evaluation of (E)-1-(4-(2-(1H-pyrazol-5-yl)vinyl)phenyl) derivatives as next generation selective RET inhibitors overcoming RET solvent front mutations (G810C/R)” (Eur J Med Chem, 2025)
pIC50: −log10 of the molar value.

Assays:
[1] = target: T1, Ephrin type-B receptor 4 (Homo sapiens) (UniProt P54760); test: Inhibition of EPHB4 (unknown origin) at 1 uM relative to control
T1 sequence (whole entry): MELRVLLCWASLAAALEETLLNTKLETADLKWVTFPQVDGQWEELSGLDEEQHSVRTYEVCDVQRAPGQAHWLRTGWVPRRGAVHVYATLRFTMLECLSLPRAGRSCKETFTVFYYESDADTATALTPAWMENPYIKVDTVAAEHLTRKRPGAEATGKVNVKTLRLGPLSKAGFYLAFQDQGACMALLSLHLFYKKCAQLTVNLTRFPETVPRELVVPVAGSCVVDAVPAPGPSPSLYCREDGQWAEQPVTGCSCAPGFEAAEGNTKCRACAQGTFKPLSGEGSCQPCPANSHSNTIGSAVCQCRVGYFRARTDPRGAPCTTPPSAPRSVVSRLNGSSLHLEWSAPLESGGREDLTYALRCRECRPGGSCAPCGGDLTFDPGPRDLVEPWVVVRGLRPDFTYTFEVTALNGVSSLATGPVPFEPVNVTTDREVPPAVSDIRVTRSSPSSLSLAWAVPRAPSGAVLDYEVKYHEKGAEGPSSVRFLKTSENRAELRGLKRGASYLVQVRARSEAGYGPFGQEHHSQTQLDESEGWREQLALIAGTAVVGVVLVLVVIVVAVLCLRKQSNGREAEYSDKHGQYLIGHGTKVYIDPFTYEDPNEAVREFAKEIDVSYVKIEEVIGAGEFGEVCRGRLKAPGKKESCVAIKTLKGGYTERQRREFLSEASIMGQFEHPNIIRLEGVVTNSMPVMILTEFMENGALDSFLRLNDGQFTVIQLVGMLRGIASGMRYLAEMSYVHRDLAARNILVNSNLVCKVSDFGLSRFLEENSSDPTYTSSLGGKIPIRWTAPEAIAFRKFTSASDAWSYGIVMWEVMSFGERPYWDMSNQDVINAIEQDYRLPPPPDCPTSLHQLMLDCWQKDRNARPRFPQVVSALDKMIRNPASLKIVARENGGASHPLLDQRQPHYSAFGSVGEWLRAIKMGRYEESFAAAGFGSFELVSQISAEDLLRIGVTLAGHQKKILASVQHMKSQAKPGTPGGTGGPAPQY

Ephrin type-A receptor 2 = Ephrin type-A receptor 2 (Homo sapiens, UniProt P29317); test: Inhibition of EPHA2 (unknown origin)
Sequence of Ephrin type-A receptor 2 (P29317 whole entry): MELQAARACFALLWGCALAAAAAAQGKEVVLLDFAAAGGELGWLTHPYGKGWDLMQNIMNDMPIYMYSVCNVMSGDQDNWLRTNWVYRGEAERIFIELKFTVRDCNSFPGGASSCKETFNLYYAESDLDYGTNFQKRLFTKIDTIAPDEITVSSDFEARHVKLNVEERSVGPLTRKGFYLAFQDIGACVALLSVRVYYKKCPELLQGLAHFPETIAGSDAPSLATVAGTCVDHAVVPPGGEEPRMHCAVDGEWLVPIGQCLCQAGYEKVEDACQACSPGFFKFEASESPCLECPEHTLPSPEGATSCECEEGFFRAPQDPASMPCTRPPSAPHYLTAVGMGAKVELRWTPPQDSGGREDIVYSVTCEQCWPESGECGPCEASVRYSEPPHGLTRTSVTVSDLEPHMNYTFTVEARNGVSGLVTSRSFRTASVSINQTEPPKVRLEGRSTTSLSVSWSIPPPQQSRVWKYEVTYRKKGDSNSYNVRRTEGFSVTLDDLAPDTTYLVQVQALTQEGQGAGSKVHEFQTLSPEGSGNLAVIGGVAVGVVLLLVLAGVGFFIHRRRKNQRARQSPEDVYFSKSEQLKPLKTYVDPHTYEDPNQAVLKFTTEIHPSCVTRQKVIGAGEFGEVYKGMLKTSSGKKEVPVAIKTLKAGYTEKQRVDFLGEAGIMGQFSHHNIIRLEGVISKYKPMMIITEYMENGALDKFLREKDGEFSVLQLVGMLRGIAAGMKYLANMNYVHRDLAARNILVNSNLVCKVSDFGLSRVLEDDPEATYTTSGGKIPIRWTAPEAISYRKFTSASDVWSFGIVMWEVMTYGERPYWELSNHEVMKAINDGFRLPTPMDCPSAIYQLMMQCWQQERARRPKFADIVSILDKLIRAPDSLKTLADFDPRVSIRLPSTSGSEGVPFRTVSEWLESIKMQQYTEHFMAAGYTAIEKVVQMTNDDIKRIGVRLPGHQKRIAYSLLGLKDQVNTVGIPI

[2] = Induction of apoptosis in mouse BaF3 cells harboring CCDC6-RET assessed as late apoptotic cells at 30 nM incubated for 48 hrs by Annexin V-PE staining based flow cytometry analysis (Rvb =2.44%); type: functional
[3] = Induction of apoptosis in mouse BaF3 cells harboring CCDC6-RET assessed as viable cells at 300 nM incubated for 48 hrs by Annexin V-PE staining based flow cytometry analysis (Rvb =91.16%); type: functional; details: read-out: Activity
[4] = Induction of apoptosis in mouse BaF3 cells harboring CCDC6-RET G810C mutant assessed as late apoptotic cells at 10 nM incubated for 48 hrs by Annexin V-PE staining based flow cytometry analysis (Rvb =4.30%); type: functional
[5] = Induction of apoptosis in mouse BaF3 cells harboring CCDC6-RET G810C mutant assessed as early apoptotic cells at 300 nM incubated for 48 hrs by Annexin V-PE staining based flow cytometry analysis (Rvb =8.74%); type: functional
[6] = Induction of apoptosis in mouse BaF3 cells harboring CCDC6-RET G810C mutant assessed as late apoptotic cells at 300 nM incubated for 48 hrs by Annexin V-PE staining based flow cytometry analysis (Rvb =4.30%); type: functional
[7] = Induction of cell cycle arrest in mouse BaF3 cells harboring CCDC6-RET assessed as accumulation of cells at S phase at 100 nM incubated for 24 hrs by propidium iodide staining based analysis (reference value: 13.27%); type: functional
BaF3 = test: Inhibition of RET phosphorylation in mouse BaF3 cells harboring CCDC6-RET incubated for 12 hrs by Western blotting analysis; type: cell-based; details: dose <= 300.0 nM

## COc1cncc(-c2cn[nH]c2/C=C/c2ccc(NC(=O)Nc3cc(C(C)(C)C(F)(F)F)on3)c(Cl)c2)c1
[1]
  inhibition: 92.9%
Ephrin type-A receptor 2
  pIC50: 7.20
[2]
  Activity: 0.8%
[3]
  viability at 0.3 µM: 13.9%
[4]
  Activity: 3.24%
[5]
  Activity: 91.44%
[6]
  Activity: 0.31%
[7]
  Activity: 7.33%
BaF3
  inhibition: Dose-dependent-effect
